According to patent US20100137232A1 (priority 2004, published 2010):

Assays:
stromal proteins = settings: cited from earlier work
[1] = in vivo
Description: In the specification, the terms ‘eye-acceptable’ and ‘acceptable to the eye’ (as well as similar terms) are intended to mean that no lachrymatory effect is seen and/or no irritation of, and/or damage to, the surface of the eye (cornea) and/or the surrounds of the eye (the lids, tear ducts etc.) and/or the deeper structures within the eye (lens, muscles etc.).

[2] = cited from earlier work
[3] = humans, cited from earlier work

maximum concentration which is acceptable in and to the eye [1] [v/v %]	SMILES	toxic effect on stromal proteins (stromal proteins)	solubility in chloroform ([2]; chloroform)	solubility in diluted (50%) alcohol ([2]; diluted (50%) alcohol)	solubility in ether ([2]; ether)	solubility in pyridine ([2]; pyridine)	solubility in water ([2]; water)	bioavailability ([3]; calculated from an oral dosage form)	half-life ([3]; oral dosage form) [h]
2.5	CCO [ethanol]	direct toxic effect							
	C[C@H]1O[C@@H](O[C@H]2[C@@H](O)C[C@H](O[C@H]3[C@@H](O)C[C@H](O[C@H]4CC[C@@]5(C)[C@H](CC[C@@H]6[C@@H]5C[C@@H](O)[C@]5(C)[C@@H](C7=CC(=O)OC7)CC[C@]65O)C4)O[C@@H]3C)O[C@@H]2C)C[C@H](O)[C@@H]1O [Digoxin]		slightly soluble	slightly soluble	practically insoluble	freely soluble	practically insoluble	about 80%	42
